Laboratory results reported in patent US20020103141A1, “Antiangiogenic combination therapy for the treatment of cancer” (priority 1998, published 2002).
pIC50: −log10 of the molar value. Where a name gives a salt, the structure may show the parent alone. Read-outs that look alike come from different tables or passages of the source.

Assays:
[1] = cited from earlier work
[2] = cited from earlier work; remark: listed apart in the source
[3] = cited from earlier work; remark: listed apart in the source
[4] = biological target: COX-1 (UniProt P23219); assay: Fast assay for COX-1 activity (PGE2 ELISA); settings: read-out: COX-1* IC50, recombinant COX-1, PGE2 ELISA, 10 min pre-incubation at 25° C.
Protocol: (§1) The homogenate was centrifuged at 10,000×G for 30 minutes, and the resultant supernatant was stored at −80° C. before being assayed for COX activity.
(§2) COX activity was assayed as PGE2 formed/μg protein/time using an ELISA to detect the prostaglandin released. CHAPS-solubilized insect cell membranes containing the appropriate COX enzyme were incubated in a potassium phosphate buffer (0.05 M Potassium phosphate, pH 7.5, 2 μM phenol, 1 μM heme, 300 μM epinephrine) with the addition of 20 μl of 100 μM arachidonic acid (10 μM). […] The PGE2 formed was measured by standard ELISA technology (Cayman Chemical).

[5] = biological target: T1, COX-2 (UniProt P35354); assay: Fast assay for COX-2 activity (PGE2 ELISA); settings: read-out: COX-2* IC50, recombinant COX-2, PGE2 ELISA, 10 min pre-incubation at 25° C.
T1 sequence (P35354 1-604): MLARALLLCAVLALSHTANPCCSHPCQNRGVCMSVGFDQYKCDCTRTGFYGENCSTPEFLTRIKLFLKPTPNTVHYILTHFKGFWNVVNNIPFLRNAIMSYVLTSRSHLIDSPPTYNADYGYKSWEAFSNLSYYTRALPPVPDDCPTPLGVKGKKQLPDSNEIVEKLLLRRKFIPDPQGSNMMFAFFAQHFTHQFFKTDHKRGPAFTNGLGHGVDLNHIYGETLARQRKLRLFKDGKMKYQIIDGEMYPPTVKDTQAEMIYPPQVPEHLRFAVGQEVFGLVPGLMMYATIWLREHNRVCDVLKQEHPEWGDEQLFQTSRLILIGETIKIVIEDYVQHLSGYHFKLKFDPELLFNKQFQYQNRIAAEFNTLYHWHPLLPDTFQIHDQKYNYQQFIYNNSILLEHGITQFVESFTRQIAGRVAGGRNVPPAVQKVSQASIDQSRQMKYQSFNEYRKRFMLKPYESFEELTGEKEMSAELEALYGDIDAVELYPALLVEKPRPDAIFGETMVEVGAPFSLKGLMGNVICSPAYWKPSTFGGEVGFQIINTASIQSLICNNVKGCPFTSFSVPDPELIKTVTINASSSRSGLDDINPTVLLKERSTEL
Protocol: as §1, §2

[6] = tested on: Lewis Lung tumor cells; assay: Lewis Lung Model: tumor volume and lung metastasis; format: in vivo, Mice
Excerpt: The data is expressed as the mean +/−SEM. […] Analysis of lung metastasis is done in all the animals by counting metastasis in a stereomicroscope and by histochemical analysis of consecutive lung sections.

[7] = doses of 15 mg/kg/day, biliary cirrhosis trials; cited from earlier work

Row | Structure (SMILES) | pIC50 [4] | melting point [°C] | other results
1 | O=C1c2c(c3c4ccc(O)cc4n([C@@H]4O[C@H](CO)[C@@H](O)[C@H](O)[C@H]4O)c3c3[nH]c4cc(O)ccc4c23)C(=O)N1NC(CO)CO [J 107088, 5H-Indolo[2,3-a]pyrrolo[3,4-c]carbazole-5,7(6H)-dione, 12-β-D-glucopyranosyl-12,13-dihydro-2,10-dihydroxy-6-[[2-hydroxy-1-(hydroxymethyl)ethyl]amino]-] |  |  | Maximum tolerated dose ([1]; in vivo): 7.5 mg/m2
2 | CC[C@@]1(O)C(=O)OCc2c1cc1n(c2=O)Cc2cc3c([N+](=O)[O-])cccc3nc2-1 [rubitecan, 1H-Pyrano[3′,4′:6,7]indolizino[1,2-b]quinoline-3,14(4H,12H)-dione, -4-ethyl-4-hydroxy-10-nitro-, (S)-] |  |  | grade 4 anemia ([1]; % of patients): 29% of; grade 4 thrombocytopenia ([1]; % of patients): penia in 18%.; chemical cystitis, Grade 2 or higher ([1]; occurred at each dose level): (25%),; diarrhea, Grade 2 or higher ([1]; occurred at each dose level): (32%),; nausea and vomiting, Grade 2 or higher ([1]; occurred at each dose level): (54%),; neutropenic sepsis, Grade 2 or higher ([1]; occurred at each dose level): sepsis (21%),; weight loss, Grade 2 or higher ([1]; occurred at each dose level): loss (18%).; Maximum tolerated dose ([1]; over five consecutive days repeated every week): 1.5 mg/ mg/m2/day
3 | CCc1c2c(nc3ccc(OC(=O)N4CCC(N5CCCCC5)CC4)cc13)-c1cc3c(c(=O)n1C2)COC(=O)[C@]3(O)CC.Cl [Irinotecan hydrochloride, (4S)-4,11-diethyl-4-hydroxy-9-((4-piperidinopiperidino)carbonyloxy)-1H-pyrano(3′,4′:6,7)indolizino(1,2-b)quinoline-3,14(4H,12H)dione hydrochloride] |  |  | Lethality in mice [2]: mice: 111 mg/kg; Lethality in rats [3]: in rats: 73 mg/kg
4 | CC[C@@]1(O)C(=O)OCc2c1cc1n(c2=O)Cc2cc3c(N)cccc3nc2-1 [9-aminocamptothecin, 1H-Pyrano[3′,4′:6,7]indolizino[1,2-b]quinoline-3,14(4H,12H)-dione, 10-amino-4-ethyl-4-hydroxy-, (S)-] |  |  | Maximum tolerated dose ([1]; in vivo): dose = 45 mug/square metre/hr
5 | O=C(O)C1=Cc2cc(Cl)cc(Cl)c2SC1C(F)(F)F (stereo not shown) [Example 24, 6,8-Dichloro-2-trifluoromethyl-2H-1-benzothiopyran-3-carboxylic acid] | 6.70 |  | 
6 | O=Cc1ccc2c(c1)C=C(C(=O)O)C(C(F)(F)F)O2 (stereo not shown) [Example 7, 6-Formyl-2-(trifluoromethyl)-2H-1-benzopyran-3-carboxylic acid] | < 3.30 | 211.3 to 215.7 | 
7 | Cc1cc2c(cc1Cl)C=C(C(=O)O)C(C(F)(F)F)S2 (stereo not shown) [Example 23, 6-Chloro-7-methyl-2-(trifluoromethyl)-2H-1-benzothiopyran-3-carboxylic acid] | 3.44 | 240.5 to 241.7 | 
8 | O=C(O)C1=Cc2cc(Cl)cc(Cl)c2NC1C(F)(F)F (stereo not shown) [Example 14, 6,8-Dichloro-1,2-dihydro-2-(trifluoromethyl)-3-quinolinecarboxylic acid] | 5.01 | 223.4 to 225.7 | pIC50 [5]: 6.70
9 | O=C(O)C1=Cc2cc(Cl)c(Cl)cc2OC1C(F)(F)F (stereo not shown) [Example 16, 6,7-Dichloro-2-trifluoromethyl-2H-1-benzopyran-3-carboxylic acid] | 4.02 | 196.1 to 198.3 | 
10 | O=C(O)C1=Cc2cc(Cl)ccc2OC1C(F)(F)F (stereo not shown) [Example 1, 6-Chloro-2-trifluoromethyl-2H-1-benzopyran-3-carboxylic acid] | 4.37 |  | pIC50 [5]: 6.15
11 | O=C(O)C1=Cc2cc(C(F)(F)F)ccc2OC1C(F)(F)F (stereo not shown) [Example 18, 2,6-Bis(trifluoromethyl)-2H-1-benzopyran-3-carboxylic acid] |  | 143.5 to 145.2 | 
12 | O=C(O)C1=Cc2cc(Cl)ccc2NC1C(F)(F)F (stereo not shown) [Example 12, 6-Chloro-1,2-dihydro-2-(trifluoromethyl)-3-quinolinecarboxylic acid] | < 3.30 | 187.8 to 188.8 | pIC50 [5]: 6.22
13 | O=C(O)C1=Cc2cc(Cl)ccc2O[C@@H]1C(F)(F)F [Example 2, (S)-6-Chloro-2-trifluoromethyl-2H-1-benzopyran-3-carboxylic acid] |  | 126.7 to 128.9 | 
14 | O=C(O)C1=Cc2cc(Br)ccc2NC1C(F)(F)F (stereo not shown) [Example 22, 6-Bromo-1,2-dihydro-2-(trifluoromethyl)-3-quinolinecarboxylic acid] | < 4.00 | 185 to 186 | pIC50 [5]: 6.40
15 | CC[C@@]1(O)C(=O)OCc2c1cc1n(c2=O)Cc2cc3c(CN(C)C)c(O)ccc3nc2-1 [Topotecan hydrochloride, (S)-10-((dimethylamino)methyl)-4-ethyl-4,9-dihydroxy-1H-pyrano(3′,4′:6,7)indolizino(1,2-B)quinoline-3,14-(4H,12H)-dione monohydrochloride] |  |  | LD10 ([2]; mice, single IV infusion): 75 mg/m^2
16 | O=C(O)C1=Cc2cc(Cl)ccc2N[C@@H]1C(F)(F)F [Example 13, (S)-6-chloro-1,2-dihydro-2-(trifluoromethyl)-3-quinolinecarboxylic acid] | < 4.00 | 173 to 176 | pIC50 [5]: 6.70
17 | O=C(O)C1=Cc2cc(OC(F)(F)F)ccc2OC1C(F)(F)F (stereo not shown) [Example 5, 6-Trifluoromethoxy-2-trifluoromethyl-2H-1-benzopyran-3-carboxylic acid] | 4.73 |  | 
18 | Cc1ccc(-c2cc(C(F)(F)F)nn2-c2ccc(S(N)(=O)=O)cc2)cc1 [Celecoxib, 4-[5-(4-methylphenyl)-3-(trifluoromethyl)-1H-pyrazol-1-yl]-benzenesulfonamide] |  |  | size of the metastatic lesions in the lung ([6]; histopathological analysis): dose-dependently reduces the size of the metastasic lesions in the lung; effect on lung metastasis ([6]; lower dose of 160 ppm in the diet): does not affect lung metastasis
19 | O=C(O)C1=Cc2cc(Cl)c(Cl)c(Cl)c2OC1C(F)(F)F (stereo not shown) [Example 20, 6,7,8-Trichloro-2-(trifluoromethyl)-2H-1-benzopyran-3-carboxylic acid] |  | 222 to 225.3 | 
20 | CC(C)(C)c1ccc2c(c1)OC(C(F)(F)F)C(C(=O)O)=C2 (stereo not shown) [Example 15, 7-(1,1-Dimethylethyl)-2-trifluoromethyl-2H-1-benzopyran-3-carboxylic acid] | 4.24 | 165.6 to 166.8 | pIC50 [5]: 5.44
21 | CSc1ccc2c(c1)C=C(C(=O)O)C(C(F)(F)F)O2 (stereo not shown) [Example 2, 6-(Methylthio)-2-(trifluoromethyl)-2H-1-benzopyran-3-carboxylic acid] |  | 166.3 to 167.9 | 
22 | O=C(O)C1=Cc2c(cc(Cl)c(Cl)c2Cl)OC1C(F)(F)F (stereo not shown) [Example 19, 5,6,7-Trichloro-2-(trifluoromethyl)-2H-1-benzopyran-3-carboxylic acid] |  | 236.2 to 239.3 | 
23 | O=C(O)C1=Cc2c(ccc(Cl)c2Cl)OC1C(F)(F)F (stereo not shown) [Example 17, 5,6-Dichloro-2-(trifluoromethyl)-2H-1-benzopyran-3-carboxylic acid] |  | 211.5 to 213.5 | 
24 | O=C(O)C1=Cc2cc(I)ccc2NC1C(F)(F)F (stereo not shown) [Example 21, 6-Iodo-1,2-dihydro-2-(trifluoromethyl)-3-quinolinecarboxylic acid] | < 4.00 | 188 to 192 | pIC50 [5]: 6.10
25 | O=C(O)C1=Cc2cc(C(F)F)ccc2OC1C(F)(F)F (stereo not shown) [Example 8, 6-(Difluoromethyl)-2-(trifluoromethyl)-2H-1-benzopyran-3-carboxylic acid] |  | 134.7 to 136.2 | 
26 | C[C@H](CCC(=O)O)[C@H]1CC[C@H]2[C@@H]3[C@@H](O)C[C@@H]4C[C@H](O)CC[C@]4(C)[C@H]3CC[C@]12C [URSO] |  |  | tolerability and toxicity [7]: extremely well tolerated and without toxicity
27 | Cc1c(Cl)cc2c(c1Cl)OC(C(F)(F)F)C(C(=O)O)=C2 (stereo not shown) [Example 9, 6,8-Dichloro-7-methyl-2-(trifluoromethyl)-2H-1-benzopyran-3-carboxylic acid] | 6.00 | 229.9 to 230.9 | pIC50 [5]: 6.05
28 | CC[C@@]1(O)C(=O)OCc2c1cc1n(c2=O)Cc2cc3c(CN(C)C)c(O)ccc3nc2-1 [Topotecan, 1H-Pyrano[3′,4′:6,7]indolizino[1,2-b]quinoline-3,14(4,H,12H)-dione, 10-[(dimethylamino)methyl]-4-ethyl-4,9-dihydroxy-, (S)-] |  |  | Maximally tolerated dose ([1]; × 5 d every 3 to 4 wk): dose: 1.5 mg/m^2
